Data as given in patent publication US10358446B2, “Bruton's tyrosine kinase inhibitors” (Zibo Biopolar Changsheng Pharmaceutical Co. Ltd., priority 2015, dated 2019).
Like-named read-outs stand apart in the source and are kept apart here.

Key:
[1] = biological target: T1, BTK (Homo sapiens (Human), UniProt Q06187); assay: Btk occupancy in cellular assays (PCI-33380 labeling, Jeko-1 cells); format: cell-based; conditions: 100 nM compound, 1.5 h pre-incubation, PCI-33380 probe
Protocol: For PCI-33380 labeling of human B cells, 10^6 Jeko-1 cells were pre-incubated with compound for 1.5 h before labeling. Then cells were treated with PCI-33380 at 5 μM for 1 h. Washed, lysed in Ripa buffer containing sample reducing agent, and analyzed by SDS/PAGE and fluorescent gel scanning using a Typhoon scanner 9500 (GE Healthcare) (Ex, 532 nm; Em, 555 nm). The gel was then blotted and total Btk levels detected by standard Western blot with Btk antibody (CST).
Target sequence in this assay (Q06187 whole entry): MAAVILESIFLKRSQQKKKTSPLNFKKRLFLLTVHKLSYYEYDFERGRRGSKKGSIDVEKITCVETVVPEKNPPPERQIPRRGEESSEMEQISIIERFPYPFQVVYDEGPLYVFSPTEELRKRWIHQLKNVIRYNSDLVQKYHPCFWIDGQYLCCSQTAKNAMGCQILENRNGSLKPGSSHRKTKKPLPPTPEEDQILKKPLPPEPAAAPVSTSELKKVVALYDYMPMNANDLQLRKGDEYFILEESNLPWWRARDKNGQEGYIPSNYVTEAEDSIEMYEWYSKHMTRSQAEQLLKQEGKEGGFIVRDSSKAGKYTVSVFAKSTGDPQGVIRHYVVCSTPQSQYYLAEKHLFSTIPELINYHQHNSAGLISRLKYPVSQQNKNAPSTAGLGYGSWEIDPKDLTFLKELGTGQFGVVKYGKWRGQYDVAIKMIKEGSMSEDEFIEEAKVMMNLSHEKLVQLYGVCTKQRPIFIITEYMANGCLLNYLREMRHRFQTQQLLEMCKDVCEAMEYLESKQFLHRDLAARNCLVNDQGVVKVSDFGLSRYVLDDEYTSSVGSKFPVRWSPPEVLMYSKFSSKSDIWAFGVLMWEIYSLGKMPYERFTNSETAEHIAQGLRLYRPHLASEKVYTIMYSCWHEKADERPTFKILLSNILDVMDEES

[2] = biological target: LYN (Homo sapiens (Human), UniProt P07948); assay: LYN kinase assay (HTRF); format: biochemical; conditions: [ATP]=20 μM, LYN=0.12 nM
[3] = biological target: LCK (Homo sapiens (Human), UniProt P06239); assay: LCK kinase assay (HTRF); format: biochemical; conditions: [ATP]=20 μM, LCK=0.2 nM
[4] = test system: Ramos cells; assay: Calcium flux assay, IgM-induced calcium influx in Ramos cells; format: cell-based; conditions: Ramos cells stimulated with goat anti-human IgM antibody 10 μg/ml; read-out: Ramos Ca Flux
Protocol: Calcium flux fluorescence-based assays were performed in aFDSS7000EX (Hamamatsu Photonics) fluorometric imaging plate reader according to manufacturer instructions. Compounds to be assayed were dissolved in DMSO, diluted to appropriate concentrations in Ca^2+ buffer ranging from 0 to 10 μM (at a dilution factor of 0.1), added 5 μl (6×) to each well (the final DMSO concentration was 0.1% in each well). Then 12.5 μL 2× dye loading solution (Fluo-4 NW Calcium Assay Kits, Invitrogen) was added per well of a 384-well plate. Afterwards, actively growing Ramos cells (ATCC) in RPM1640 medium supplemented with 10% FBS (Invitrogen) were washed and re-plated in assay buffer (from Fluo-4 NW Calcium Assay Kits, Invitrogen) to approximately 6.4×10^6/ml (80000 cells/12.5 μL in 384-well plates). […] The plates were now ready to be used in an experiment Immediately after the transfer and a 10-s recording of baseline fluorescence, the compound treated cells were stimulated with a goat anti-human IgM antibody (10 μg/ml; Jackson Immuno Research) and read in a FDSS for 240 seconds. Difference between the signal and that at baseline, designated adjusted relative fluorescence unit, was calculated by using a custom Excel (Microsoft, Redmond, Wash.) template to determine IgM-induced calcium influx and its inhibition by compounds. […]

[5] = biological target: T1, BTK; assay: Btk kinase assay (HTRF); format: biochemical; conditions: [ATP]=80 μM, BTK=3.4 nM
How it was run: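 BTK (3.4 nM) incubated 1 h with inhibitor, 80 μM ATP and 1 μM peptide substrate in 50 mM HEPES pH 7.0 with BSA and orthovanadate. Reaction stopped with EDTA plus Eu-antibody/XL665; HTRF 665/615 ratio read after 1 h, IC50 calculated relative to no-inhibitor and no-enzyme controls.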
Target sequence in this assay (Q06187 whole entry, species assumed): as the sequence (Q06187 whole entry) above

[6] = biological target: Btk (Mus musculus (Mouse), UniProt P35991); assay: Btk occupancy in vivo (PBMCs or splenocytes, PCI-33380 labeling); set-up: species or system Babc/L mice; conditions: 25 mg/kg single oral dose, Balb/c mice, after 4 hours
Protocol: For analysis of Btk occupancy in Babc/L mice following oral dosing of compounds after 4 hours. Isolating peripheral blood mononuclear cells (PBMCs) with mouse peripheral blood separation kit (Hao Yang Biological Manufacture CO., LTD, Tianjin) were collected from Babc/L mice (1 ml blood from two mice). Spleens were processed to splenocytes followed by 5 min incubation in red blood cell lysing buffer (from mouse peripheral blood separation kit). PBMCs or splenocytes were then PCI-33380-labeled and lysates analyzed by fluorescent gel scanning as described in cellular assays.

[7] = biological target: BLK (Homo sapiens (Human), UniProt P51451); assay: BLK kinase assay (HTRF); format: biochemical; conditions: [ATP]=20 μM, BLK=0.6 nM
Sequence of BLK (P51451 whole entry, species assumed): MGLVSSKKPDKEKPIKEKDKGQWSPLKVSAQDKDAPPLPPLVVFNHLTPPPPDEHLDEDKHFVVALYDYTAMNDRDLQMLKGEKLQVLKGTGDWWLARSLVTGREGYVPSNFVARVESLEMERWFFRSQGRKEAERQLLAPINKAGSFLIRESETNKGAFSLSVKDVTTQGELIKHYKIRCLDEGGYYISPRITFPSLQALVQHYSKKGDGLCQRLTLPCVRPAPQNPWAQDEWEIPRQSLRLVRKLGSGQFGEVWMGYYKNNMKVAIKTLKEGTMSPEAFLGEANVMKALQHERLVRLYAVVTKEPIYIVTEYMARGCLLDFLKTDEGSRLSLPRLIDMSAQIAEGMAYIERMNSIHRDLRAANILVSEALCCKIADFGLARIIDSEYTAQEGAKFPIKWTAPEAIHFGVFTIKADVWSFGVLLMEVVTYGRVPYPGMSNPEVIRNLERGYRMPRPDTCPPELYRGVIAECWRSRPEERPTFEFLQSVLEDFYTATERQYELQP

Sequence of LCK (P06239 whole entry, species assumed): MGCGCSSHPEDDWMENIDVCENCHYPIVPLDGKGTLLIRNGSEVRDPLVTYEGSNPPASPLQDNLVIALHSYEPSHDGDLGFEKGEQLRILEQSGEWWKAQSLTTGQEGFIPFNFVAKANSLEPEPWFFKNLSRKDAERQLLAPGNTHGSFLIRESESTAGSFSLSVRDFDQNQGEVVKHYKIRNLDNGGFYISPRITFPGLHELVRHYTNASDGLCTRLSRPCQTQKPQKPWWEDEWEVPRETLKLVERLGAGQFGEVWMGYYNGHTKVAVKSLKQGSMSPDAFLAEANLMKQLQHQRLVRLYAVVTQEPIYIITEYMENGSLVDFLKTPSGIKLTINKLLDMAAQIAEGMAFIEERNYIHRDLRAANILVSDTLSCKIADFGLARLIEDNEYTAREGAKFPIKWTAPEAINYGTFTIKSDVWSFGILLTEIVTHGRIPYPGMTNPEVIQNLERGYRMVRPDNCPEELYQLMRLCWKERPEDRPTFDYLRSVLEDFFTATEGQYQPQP
Sequence of LYN (P07948 whole entry, species assumed): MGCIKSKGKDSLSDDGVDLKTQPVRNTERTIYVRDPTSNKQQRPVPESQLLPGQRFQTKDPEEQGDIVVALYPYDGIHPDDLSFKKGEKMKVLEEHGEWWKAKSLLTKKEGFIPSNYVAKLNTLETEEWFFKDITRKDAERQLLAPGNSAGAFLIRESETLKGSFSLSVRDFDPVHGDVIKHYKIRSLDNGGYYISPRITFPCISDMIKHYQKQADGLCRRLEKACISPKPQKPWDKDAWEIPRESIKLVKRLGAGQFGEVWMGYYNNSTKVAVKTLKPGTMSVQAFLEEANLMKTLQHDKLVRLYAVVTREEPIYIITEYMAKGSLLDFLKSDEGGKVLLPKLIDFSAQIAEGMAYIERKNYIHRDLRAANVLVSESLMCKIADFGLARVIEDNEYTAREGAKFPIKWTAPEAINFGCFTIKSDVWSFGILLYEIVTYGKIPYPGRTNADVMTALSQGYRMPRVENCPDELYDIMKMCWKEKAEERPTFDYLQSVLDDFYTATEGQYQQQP
Sequence of Btk (P35991 whole entry): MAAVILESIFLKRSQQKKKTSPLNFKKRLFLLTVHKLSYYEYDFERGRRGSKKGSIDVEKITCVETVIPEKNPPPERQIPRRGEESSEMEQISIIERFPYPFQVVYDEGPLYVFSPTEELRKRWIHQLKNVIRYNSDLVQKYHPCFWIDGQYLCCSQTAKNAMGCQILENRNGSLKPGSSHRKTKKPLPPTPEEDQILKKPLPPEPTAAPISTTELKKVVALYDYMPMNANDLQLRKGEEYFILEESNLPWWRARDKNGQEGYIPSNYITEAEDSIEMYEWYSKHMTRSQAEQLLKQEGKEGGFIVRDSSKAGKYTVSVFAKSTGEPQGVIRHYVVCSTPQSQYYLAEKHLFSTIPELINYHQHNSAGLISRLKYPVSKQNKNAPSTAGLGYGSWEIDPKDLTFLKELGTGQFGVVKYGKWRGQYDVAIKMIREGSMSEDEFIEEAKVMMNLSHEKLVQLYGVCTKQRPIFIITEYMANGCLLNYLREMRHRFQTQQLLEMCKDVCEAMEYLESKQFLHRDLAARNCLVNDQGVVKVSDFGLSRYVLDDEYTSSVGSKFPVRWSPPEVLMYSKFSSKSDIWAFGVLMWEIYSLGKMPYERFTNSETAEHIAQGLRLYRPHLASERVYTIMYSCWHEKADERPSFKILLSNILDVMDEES

Structure (SMILES)	occupancy of the active site of Btk [1]	IC50 [2] [µM]	IC50 [3] [µM]	IC50 [4] [µM]	IC50 ([5]; Table 2, read-out: BTK IC50) [µM]	IC50 ([5]; read-out: BTK Inhibition) [µM]	Btk occupancy in vivo [6]	IC50 [7] [µM]
C=CC(=O)N1CC[C@@H](n2c(=O)n(-c3ccc(Oc4cccc(C)c4)cc3)c3cnccc32)C1 [Example 4, (R)-1-(1-acryloylpyrrolidin-3-yl)-3-(4-(m-tolyloxy)phenyl)-1H-imidazo[4,5-c]pyridin-2(3H)-one]	fully occupy	1 to 10	1 to 10	0.01 to 0.1	≤ 0.01	≤ 0.01	–	–
C=CC(=O)N1CCC[C@@H](n2c(=O)n(-c3ccc(Sc4ccccc4)cc3)c3cnccc32)C1 [Example 38, (R)-1-(1-acryloylpiperidin-3-yl)-3-(4-(phenylthio)phenyl)-1H-imidazo[4,5-c]pyridin-2(3H)-one]	–	≥ 10	≥ 10	–	≤ 0.01	≤ 0.01	–	0.01 to 0.1
C=CC(=O)N1CC[C@@H](n2c(=O)n(-c3ccc(Oc4cccc(C)c4C)cc3)c3cnccc32)C1 [Example 51, (R)-1-(1-acryloylpyrrolidin-3-yl)-3-(4-(2,3-dimethylphenoxy)phenyl)-1H-imidazo[4,5-c] pyridin-2(3H)-one]	–	≥ 10	≥ 10	–	≤ 0.01	≤ 0.01	–	0.01 to 0.1

The remaining lines, values ahead:

occupancy of the active site of Btk [1]	IC50 [2] [µM]	IC50 [3] [µM]	IC50 [4] [µM]	IC50 ([5]; Table 2, read-out: BTK IC50) [µM]	IC50 ([5]; read-out: BTK Inhibition) [µM]	Btk occupancy in vivo [6]	IC50 [7] [µM]	Structure (SMILES)
fully occupy	≥ 10	≥ 10	0.01 to 0.1	≤ 0.01	≤ 0.01	full occupancy	–	C=CC(=O)N1CC[C@@H](n2c(=O)n(-c3ccc(Oc4ccccc4)c(Cl)c3)c3cnccc32)C1 [Example 5, (R)-1-(1-acryloylpyrrolidin-3-yl)-3-(3-chloro-4-phenoxyphenyl)-1H-imidazo[4,5-c]pyridin-2(3H)-one]
–	1 to 10	≥ 10	–	≤ 0.01	≤ 0.01	–	0.1 to 1	C=CC(=O)N1CC[C@@H](n2c(=O)n(-c3ccc(Oc4cccc(Cl)c4)c(Cl)c3)c3cnccc32)C1 [Example 26, (R)-1-(1-acryloylpyrrolidin-3-yl)-3-(3-chloro-4-(3-chlorophenoxy)phenyl)-1H-imidazo[4,5-c]pyridin-2(3H)-one]
–	≥ 10	1 to 10	–	0.01 to 0.1	0.01 to 0.1	–	0.01 to 0.1	C=CC(=O)N1CCC[C@@H](n2c(=O)n(-c3ccc(Oc4ccccc4)cc3)c3cnccc32)C1 [Example 20, (R)-1-(1-acryloylpiperidin-3-yl)-3-(4-phenoxyphenyl)-1H-imidazo[4,5-c]pyridin-2(3H)-one]
